Measured values from patent US10011595B2 (Merck Sharp & Dohme Corp., priority 2014, dated 2018).

Molecular target: human orexin-2 receptor (Homo sapiens (Human), UniProt O43614)
Experiment: FLIPR Ca2+ Flux Assay, orexin-2 receptor
Format: cell-based
Conditions: CHO cells expressing the human orexin-2 receptor; agonist 70 pM Ala-6,12 orexin-A; read-out: hOX2R FLIPR IC50
In short: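 CHO cells expressing rat OX1 or human OX2 receptor, Fluo-4AM loaded 60 min; compound preincubated 5 min before 70 pM Ala-6,12 human orexin-A in HBSS/20 mM HEPES/0.1% BSA/2.5 mM probenecid, pH 7.4. FLIPR peak fluorescence over 5 min versus agonist-only response gives IC50.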

Chain of human orexin-2 receptor (O43614 whole entry): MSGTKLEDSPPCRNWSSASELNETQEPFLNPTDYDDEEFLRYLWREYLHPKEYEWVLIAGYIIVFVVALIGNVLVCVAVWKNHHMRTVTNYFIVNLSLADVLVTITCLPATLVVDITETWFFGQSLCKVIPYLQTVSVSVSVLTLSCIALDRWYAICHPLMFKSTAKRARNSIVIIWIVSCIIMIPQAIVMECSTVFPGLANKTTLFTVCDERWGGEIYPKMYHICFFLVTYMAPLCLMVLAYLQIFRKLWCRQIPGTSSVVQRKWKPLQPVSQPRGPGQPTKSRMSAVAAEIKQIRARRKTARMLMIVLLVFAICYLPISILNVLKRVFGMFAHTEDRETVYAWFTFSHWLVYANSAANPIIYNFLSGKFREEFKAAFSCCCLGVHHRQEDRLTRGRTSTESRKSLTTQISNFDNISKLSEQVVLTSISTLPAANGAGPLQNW

Question: With `CCN(CCN(C)c1nccc(C(C)(C)O)n1)C(=O)c1ccccc1OC(F)(F)F` [Example H-27] as the compound, how does the IC50 read?
Answer: 10 nM

Question: Which IC50 does the source give for `CCN(CCN(C)c1nccc(C(C)(C)O)n1)C(=O)c1ccc(OC)nc1C1CC1` [Example H-28, 2-cyclopropyl-N-ethyl-N-(2-((4-(2-hydroxypropan-2-yl)pyrimidin-2-yl)(methyl)amino)ethyl)-6-methoxynicotinamide] here?
Answer: 20 nM

Question: How did the IC50 turn out when `CCN(CCN(C)c1nccc(C(C)(C)O)n1)C(=O)c1ccccc1-n1ncnn1` [Example H-29, N-ethyl-N-(2-((4-(2-hydroxypropan-2-yl)pyrimidin-2-yl)(methyl)amino)ethyl)-2-(2H-tetrazol-2-yl)benzamide] was run?
Answer: 17 nM

Question: With `CCN(CCN(C)c1nccc(C(C)(C)O)n1)C(=O)c1cccnc1-c1ccccc1` [Example H-30, N-ethyl-N-(2-((4-(2-hydroxypropan-2-yl)pyrimidin-2-yl)(methyl)amino)ethyl)-2-phenylnicotinamide] as the compound, how does the IC50 read?
Answer: 53 nM

Question: With `CCN(CCN(C)c1nccc(C(C)(C)O)n1)C(=O)c1ncccc1-c1ccccc1` [Example H-31, N-ethyl-N-(2-((4-(2-hydroxypropan-2-yl)pyrimidin-2-yl)(methyl)amino)ethyl)-3-phenylpicolinamide] as the compound, how does the IC50 read?
Answer: 23 nM

Question: With `CCN(CCN(C)c1nccc(C(C)(C)O)n1)C(=O)c1nccnc1-n1cccn1` [Example H-32, N-ethyl-N-(2-((4-(2-hydroxypropan-2-yl)pyrimidin-2-yl)(methyl)amino)ethyl)-3-(1H-pyrazol-1-yl)pyrazine-2-carboxamide] as the compound, how does the IC50 read?
Answer: 54 nM

Question: Which IC50 does the source give for `CCN(CCN(C)c1nccc(C(C)(C)O)n1)C(=O)c1cccnc1-n1cccn1` [Example H-33, N-ethyl-N-[2-[[4-(1-hydroxy-1-methyl-ethyl)pyrimidin-2-yl]-methyl-amino]ethyl]-2-pyrazol-1-yl-pyridine-3-carboxamide] here?
Answer: 37 nM

Question: How did the IC50 turn out when `CCN(CCN(C)c1nccc(C(C)(C)O)n1)C(=O)c1ncccc1-n1nccn1` [Example H-34, N-ethyl-N-[2-[[4-(1-hydroxy-1-methyl-ethyl)pyrimidin-2-yl]-methyl-amino]ethyl]-3-(triazol-2-yl)pyridine-2-carboxamide] was run?
Answer: 43 nM

Question: `CCN(CCN(C)c1cccc(C(C)(C)O)n1)C(=O)c1ccccc1-n1nccn1` [Example I-1, N-ethyl-N-(2-((6-(2-hydroxypropan-2-yl)pyridin-2-yl)(methyl)amino)ethyl)-2-(2H-1,2,3-triazol-2-yl)benzamide] was tested. Which IC50 did it give?
Answer: 12.4 nM

Question: `CCN(CCN(C)c1cccc(C(C)(C)O)n1)C(=O)c1ccccc1OCC(F)F` [Example I-4, 2-(2,2-difluoroethoxy)-N-ethyl-N-(2-((6-(2-hydroxypropan-2-yl)pyridin-2-yl)(methyl)amino)ethyl)benzamide] was tested. Which IC50 did it give?
Answer: 179 nM

Question: How did the IC50 turn out when `CCN(CCN(C)c1cccc(C(C)(C)O)n1)C(=O)c1ncccc1-n1nccn1` [Example I-9, N-ethyl-N-(2-((6-(2-hydroxypropan-2-yl)pyridin-2-yl)(methyl)amino)ethyl)-3-(2H-1,2,3-triazol-2-yl)picolinamide] was run?
Answer: 312 nM

Question: `CCN(CCN(C)c1cccc(C(C)(C)O)n1)C(=O)c1ccccc1-n1cccn1` [Example I-10, N-ethyl-N-(2-((6-(2-hydroxypropan-2-yl)pyridin-2-yl)(methyl)amino)ethyl)-2-(1H-pyrazol-1-yl)benzamide] was tested. Which IC50 did it give?
Answer: 93.3 nM

Question: `CCN(CCN(C)c1cccc(C(C)(C)O)n1)C(=O)c1nccnc1-n1cccn1` [Example I-11, N-ethyl-N-(2-((6-(2-hydroxypropan-2-yl)pyridin-2-yl)(methyl)amino)ethyl)-3-(1H-pyrazol-1-yl)pyrazine-2-carboxamide] was tested. Which IC50 did it give?
Answer: 328 nM

Question: How did the IC50 turn out when `CCN(CCN(C)c1cccc(C(C)(C)O)n1)C(=O)c1ccccc1OC(F)(F)F` [Example I-12, N-ethyl-N-(2-((6-(2-hydroxypropan-2-yl)pyridin-2-yl)(methyl)amino)ethyl)-2-(trifluoromethoxy)benzamide] was run?
Answer: 73.7 nM

Question: With `CCN(CCN(C)c1cccc(C(C)(C)O)n1)C(=O)c1ccccc1C1CC1` [Example I-13, 2-cyclopropyl-N-ethyl-N-(2-((6-(2-hydroxypropan-2-yl)pyridin-2-yl)(methyl)amino)ethyl)benz-amide] as the compound, how does the IC50 read?
Answer: 53.7 nM

Question: `CCN(CCN(C)c1cccc(C(C)(C)O)n1)C(=O)c1ccccc1OC(F)F` [Example I-14, 2-(difluoromethoxy)-N-ethyl-N-(2-((6-(2-hydroxypropan-2-yl)pyridin-2-yl)(methyl)amino)ethyl)benz-amide] was tested. Which IC50 did it give?
Answer: 201 nM

Question: How did the IC50 turn out when `CCN(CCN(C)c1cccc(C(C)(C)O)n1)C(=O)c1cccnc1OCC(F)(F)F` [Example I-15, N-ethyl-N-(2-((6-(2-hydroxypropan-2-yl)pyridin-2-yl)(methyl)amino)ethyl)-2-(2,2,2-trifluoroethoxy)nicotinamide] was run?
Answer: 306 nM

Question: For `CCN(CCN(C)c1cccc(C(C)(C)O)n1)C(=O)c1cccnc1OCC(F)F` [Example I-16, 2-(2,2-difluoroethoxy)-N-ethyl-N-(2-((6-(2-hydroxypropan-2-yl)pyridin-2-yl)(methyl)amino)ethyl)nicotin-amide], which IC50 is on record?
Answer: 234 nM

Question: `CCN(CCN(C)c1cccc(C(C)(C)O)n1)C(=O)c1ccccc1OCC(F)(F)F` [Example I-17, N-ethyl-N-(2-((6-(2-hydroxypropan-2-yl)pyridin-2-yl)(methyl)amino)ethyl)-2-(2,2,2-trifluoroethoxy)benzamide] was tested. Which IC50 did it give?
Answer: 326 nM

Question: With `CCOc1ccccc1C(=O)N(CC)CCN(C)c1cccc(C(C)(C)O)n1` [Example I-18, 2-ethoxy-N-ethyl-N-(2-((6-(2-hydroxypropan-2-yl)pyridin-2-yl)(methyl)amino)ethyl)benz-amide] as the compound, how does the IC50 read?
Answer: 154 nM

Question: Which IC50 does the source give for `CCN(CCN(C)c1cccc(C(C)(C)O)n1)C(=O)c1cccnc1CC(F)(F)F` [Example I-19, N-ethyl-N-(2-((6-(2-hydroxypropan-2-yl)pyridin-2-yl)(methyl)amino)ethyl)-2-(2,2,2-trifluoroethyl)nicotinamide] here?
Answer: 2270 nM

Question: How did the IC50 turn out when `CCN(CCN(C)c1cccc(C(C)(C)O)n1)C(=O)c1ccccc1C1CC1(F)F` (stereo not drawn) [Example I-20, 2-(2,2-difluorocyclopropyl)-N-ethyl-N-(2-((6-(2-hydroxypropan-2-yl)pyridin-2-yl)(methyl)amino)ethyl)benz-amide] was run?
Answer: 36.4 nM

Question: How did the IC50 turn out when `CCN(CCN(C)c1cccc(C(C)(C)O)n1)C(=O)c1cccnc1OC(C)C` [Example I-21, N-ethyl-N-(2-((6-(2-hydroxypropan-2-yl)pyridin-2-yl)(methyl)amino)ethyl)-2-isopropoxynicotinamide] was run?
Answer: 387 nM

Question: `CCN(CCN(C)c1cccc(C(C)(C)O)n1)C(=O)c1ncccc1-c1ccccc1` [Example I-22, N-ethyl-N-(2-((6-(2-hydroxypropan-2-yl)pyridin-2-yl)(methyl)amino)ethyl)-3-phenylpicolinamide] was tested. Which IC50 did it give?
Answer: 211 nM

Question: `CCN(CCN(C)c1cccc(C(C)(C)O)n1)C(=O)c1ccccc1-n1ncnn1` [Example I-23, N-ethyl-N-(2-((6-(2-hydroxypropan-2-yl)pyridin-2-yl)(methyl)amino)ethyl)-2-(2H-tetrazol-2-yl)benzamide] was tested. Which IC50 did it give?
Answer: 69.6 nM

Question: `CCN(CCN(C)c1cccc(C(C)(C)O)n1)C(=O)c1cccnc1-n1cccn1` [Example I-24, N-ethyl-N-(2-((6-(2-hydroxypropan-2-yl)pyridin-2-yl)(methyl)amino)ethyl)-2-(1H-pyrazol-1-yl)nicotinamide] was tested. Which IC50 did it give?
Answer: 104 nM

Question: How did the IC50 turn out when `CCOc1ncccc1C(=O)N(CC)CCN(C)c1cccc(C(C)(C)O)n1` [Example I-25, 2-ethoxy-N-ethyl-N-(2-((6-(2-hydroxypropan-2-yl)pyridin-2-yl)(methyl)amino)ethyl)nicotin-amide] was run?
Answer: 466 nM
